# In paper PMC4645160, “Targeting kinases with anilinopyrimidines: discovery of N-phenyl-N’-[4-(pyrimidin-4-ylamino)phenyl]urea derivatives as selective inhibitors of class III receptor tyrosine kinase subfamily” (Scientific Reports, 2015):
# Where two headings read alike, the source gives them in different places.
# How the values were obtained:
# A431 cells = assay: MTT cytotoxicity assay, A431 epidermoid carcinoma cells; format: cell-based; conditions: Homo sapiens, A-431; MTT test, 72 h; read-out: A431 IC50 (μM) ± SD
# Experimental: F. Zunino (Division of Experimental Oncology B, Istituto Nazionale dei Tumori, Milan, Italy).
# The growth inhibitory effect towards human cell lines was evaluated by means of MTT (tetrazolium salt reduction) assay. […] Triplicate cultures were established for each treatment.
# KIT = target: T1, KIT (Homo sapiens, UniProt P10721); assay: KinomeScan Kd determination, KIT; format: binding; conditions: for KdRTK/KdKIT, KIT: Kd KIT over Kd KIT; for Kd: KinomeScan
# T1 construct: purchased DiscoverX (KinomeScan service)
# T1 sequence (P10721 26-976): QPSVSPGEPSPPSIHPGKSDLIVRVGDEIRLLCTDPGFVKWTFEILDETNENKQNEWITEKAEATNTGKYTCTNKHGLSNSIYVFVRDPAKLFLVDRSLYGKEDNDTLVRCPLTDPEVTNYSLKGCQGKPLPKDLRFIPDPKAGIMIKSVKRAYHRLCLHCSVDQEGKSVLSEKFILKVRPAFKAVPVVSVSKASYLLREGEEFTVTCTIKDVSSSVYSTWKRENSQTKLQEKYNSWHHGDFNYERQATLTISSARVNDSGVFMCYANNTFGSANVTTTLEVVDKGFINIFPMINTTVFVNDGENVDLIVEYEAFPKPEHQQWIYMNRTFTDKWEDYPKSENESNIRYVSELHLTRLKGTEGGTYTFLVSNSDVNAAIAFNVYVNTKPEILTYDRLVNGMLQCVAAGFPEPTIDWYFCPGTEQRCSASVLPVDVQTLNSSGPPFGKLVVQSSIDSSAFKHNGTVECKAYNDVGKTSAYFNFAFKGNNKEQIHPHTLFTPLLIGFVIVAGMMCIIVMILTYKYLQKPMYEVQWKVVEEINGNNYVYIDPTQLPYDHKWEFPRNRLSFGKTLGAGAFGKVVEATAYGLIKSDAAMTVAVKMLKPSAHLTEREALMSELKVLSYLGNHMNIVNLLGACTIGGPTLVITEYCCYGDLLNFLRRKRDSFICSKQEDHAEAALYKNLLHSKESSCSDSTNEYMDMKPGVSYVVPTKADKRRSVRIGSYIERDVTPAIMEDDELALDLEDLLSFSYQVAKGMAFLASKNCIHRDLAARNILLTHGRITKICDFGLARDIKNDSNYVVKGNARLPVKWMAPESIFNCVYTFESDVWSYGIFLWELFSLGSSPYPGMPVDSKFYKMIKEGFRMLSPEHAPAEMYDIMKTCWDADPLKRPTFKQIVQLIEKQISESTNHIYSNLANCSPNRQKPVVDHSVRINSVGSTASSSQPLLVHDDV
# Experimental: (§1) The compounds were evaluated using the KinomeScan™ platform (http://www.discoverx.com/services/drug-discovery-development-services/kinase-profiling/kinomescan), that measures the ability of the test compound to disrupt the complex between a high affinity ATP-mimic probe immobilized on a solid support and the kinase of interest. The KinomeScan is a very helpful technology for the fast and reliable screening of a number of compounds against a wide and customizable panel of kinases. Besides, it is not based on the use of hazardous radioactive ^32P-ATP and has a very low rate of false positive (<1%)[44]. The screening platform outputs a “Percent of Control” (POC) value, statistically correlated to the dissociation constant (Kd) value (http://www.discoverx.com/tools-resources/leadhunter-study-reports-data-analysis), for each pair of kinase/ligand. The POC is calculated as reported in equation (1): […]
# (§2) The ability of compounds 19 and 27 to bind the class III RTK members was measured (Table 2; see also Figs S3 and S4 for dose/response curves).
# (§3) Figure S3. Dose/response curve for compound 19 against tested kinases for Kd determination. The amount of kinase measured by qPCR (Signal; y-axis) is plotted against the corresponding compound concentration in nM in log10 scale (x-axis). Data points marked with an "x" were not used for Kd determination.
# (§4) (1 picture or pasted object on this page, not shown here)
# (§5) Figure S4. Dose/response curve for compound 27 against tested kinases for Kd
# FLT3 = target: T2, FLT3 (Homo sapiens, UniProt P36888); assay: KinomeScan Kd determination, FLT3; format: binding; conditions: for KdRTK/KdKIT, FLT3: Kd FLT3 over Kd KIT; for Kd: KinomeScan
# T2 construct: purchased DiscoverX (KinomeScan service)
# T2 sequence (P36888 27-993): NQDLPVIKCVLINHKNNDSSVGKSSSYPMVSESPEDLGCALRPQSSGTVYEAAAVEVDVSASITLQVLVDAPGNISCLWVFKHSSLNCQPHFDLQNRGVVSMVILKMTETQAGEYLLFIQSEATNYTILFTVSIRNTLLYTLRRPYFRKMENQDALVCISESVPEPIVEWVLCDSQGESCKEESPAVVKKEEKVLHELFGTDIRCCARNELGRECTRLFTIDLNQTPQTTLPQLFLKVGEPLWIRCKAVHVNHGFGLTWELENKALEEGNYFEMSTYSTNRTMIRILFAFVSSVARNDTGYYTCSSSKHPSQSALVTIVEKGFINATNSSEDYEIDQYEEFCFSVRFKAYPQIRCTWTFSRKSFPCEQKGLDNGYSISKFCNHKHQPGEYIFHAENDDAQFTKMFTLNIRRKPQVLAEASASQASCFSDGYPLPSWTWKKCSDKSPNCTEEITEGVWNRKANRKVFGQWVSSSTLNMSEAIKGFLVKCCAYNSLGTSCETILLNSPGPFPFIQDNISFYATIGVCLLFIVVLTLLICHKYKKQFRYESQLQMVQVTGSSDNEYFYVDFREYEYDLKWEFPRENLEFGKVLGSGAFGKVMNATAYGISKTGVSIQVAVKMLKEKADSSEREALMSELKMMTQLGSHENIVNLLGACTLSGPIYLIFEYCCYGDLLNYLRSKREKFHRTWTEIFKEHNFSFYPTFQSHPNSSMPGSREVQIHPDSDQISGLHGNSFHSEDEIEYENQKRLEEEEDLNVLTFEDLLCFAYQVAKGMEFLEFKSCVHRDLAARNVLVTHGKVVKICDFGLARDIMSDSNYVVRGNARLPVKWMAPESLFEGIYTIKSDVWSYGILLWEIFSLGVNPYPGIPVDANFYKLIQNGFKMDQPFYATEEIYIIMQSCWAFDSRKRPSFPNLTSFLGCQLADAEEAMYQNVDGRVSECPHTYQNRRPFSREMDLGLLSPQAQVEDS
# Experimental: as §1, §2, §3, §4, §5
Structure (SMILES),IC50 (A431 cells) [µM],"Potency improvement Kd19/Kd27, KIT (KIT; 27 versus 19)","KdRTK/KdKIT, KIT (KIT)",Kd (KIT) [nM],"Potency improvement Kd19/Kd27, FLT3 (FLT3; 27 versus 19)","KdRTK/KdKIT, FLT3 (FLT3)","Kd (FLT3; bound stated, read-out: Kd against FLT3) [nM]",Kd (FLT3; read-out: Kd (nM) FLT3) [nM]
O=C(CN1CCOCC1)Nc1cccc(-c2cc(Nc3ccc(NC(=O)Nc4ccccc4)cc3)ncn2)c1 [Compound 27],1.96 ± 0.92,2.2,1,10,3.5,130,> 1000,1300
O=C(Nc1ccccc1)Nc1ccc(Nc2cc(-c3ccccc3)ncn2)cc1 [Compound 19],2.85 ± 1.03,,1,22,,209,,4600
